Where a name gives a salt, the structure may show the parent alone.

In this experiment the test system is HL60 human leukaemia cell lines. Description: Antiproliferative activity by MTS assay (CellTiter 96 Aqueous One Solution). Type of experiment: cell-based. The following applies: HL-60, HL60 cells, 72 hr treatment, triplicate. The protocol: Antiproliferative activity was determined by MTS assay (Howell L A, Bowater R A, O'Connell M A, Reszka A P, Neidle S, Searcey M. (2012) Synthesis of Small Molecules Targeting Multiple DNA Structures using Click Chemistry. ChemMedChem, 7, 792-804) using the CellTiter 96 Aqueous One Solution Cell Proliferation Assay (Promega) and following the manufacturer's instructions.
The HL60 cell line was purchased from ECACC (Porton Down, UK). Cells were cultured in RPMI 1640 medium supplemented with 10% foetal calf serum and 2 mM L-glutamine. HL-60 cells were passaged twice weekly and maintained between 1-9×10^5 cells/ml at 37° C. and 5% CO2.
HL-60 cells (3×10^4/100 μl) were seeded in 96-well plates and left untreated or treated with DMSO (vehicle control), duocarmycins, or doxorubicin hydrochloride at 8 concentrations (see below) in triplicate for 72 hr at 37° C. with 5% CO2. Following this, MTS assay reagent was added for 4 hrs and the absorbance measured at 490 nm using the Polarstar Optima microplate reader (BMG Labtech). IC50 values were calculated using GraphPad Prism Version 5.0 software.
On the technique in general: Tetrazolium dyes change colour on reduction, which living cells bring about.

By IC50 is commonly meant the concentration at which inhibition is half-maximal. Regarding `COc1cccc2c1C(=O)c1c(O)c3c(c(O)c1C2=O)C[C@@](O)(C(=O)CO)C[C@@H]3O[C@H]1C[C@H](N)[C@H](O)[C@H](C)O1` [Doxorubicin, doxorubicin hydrochloride], the IC50 came out at 125 nM.

The record behind these values is patent publication US9765077B2, “Synthesis of duocarmycin analogues” (University of East Anglia, priority 2015, dated 2017).
